Values joined by “and” are separate entries in the source; they are usually repeats but may differ in a detail not shown here. Equal values may be shown once. Positions of bridges follow the written chain, without caps; N, C: chain ends. Residues, ends and D or L forms follow the SMILES beside them. No end group written: not given here.
Assays:
MUC5AC = molecular target: T1, MUC5AC (Homo sapiens, UniProt P98088); test: Labeling of tissue sections with biotinylated peptide (specificity); settings: FIG. 4
T1 construct: Sections of healthy gastric and colonic mucosae and of human colorectal adenoma; from tissue; host or cells: paraffin sections of human gastric epithelium and colorectal adenoma
Protocol: (§1) Sections of healthy gastric and colonic mucosae and of human colorectal adenoma (5 μm thick) were fixed for 24 h with 4% paraformaldehyde and embedded in paraffin. For the labeling, the sections were first of all deparaffinized in toluene and rehydrated in 95% alcohol. After rinsing in water, the slides are brought to boiling for 10 minutes in a citrate buffer (50 mM, pH 4). Once the temperature of the buffer has returned to 25-30° C., the slides are then rinsed with PBS and then successively incubated for 15 minutes in a 0.15% hydrogen peroxide (H2O2) solution and a kit for blocking the endogenous biotin for 1 h. The sections are then blocked using a milk-enriched buffer for 1 h at ambient temperature, and are then incubated at 4° C. for 18 h with the peptides at various concentrations (20 μM, 10 μM, 1 μM, 0.2 μM, 0.04 μM) or the antibodies (MUC5AC: PM8 at a 1/100 dilution and MUC2: Lum2-3 at a 1/100 dilution) diluted in PBS. The biotinylated peptides bound to the target are visualized using goat anti-biotin antibodies incubated for one hour at ambient temperature and then diluted in PBS at 1 μg/ml. A second incubation for one hour at ambient temperature is carried out in the presence of peroxidase-labeled anti-goat antibodies at 0.2 μg/ml diluted in PBS supplemented with 0.1% of Tween-20. […]

MUC2 glycoprotein = molecular target: T2, MUC2 glycoprotein (Homo sapiens, UniProt Q02817); test: Labeling of colonic adenoma sections, recognition of MUC2; settings: FIG. 4
T2 construct: Sections of healthy gastric and colonic mucosae and of human colorectal adenoma; from tissue; host or cells: paraffin sections of human colonic adenoma
Protocol: as §1

[1] = molecular target: mouse MUC5AC glycoprotein; test: ELISA on MUC5AC purified from mouse stomach; type: binding; settings: ELISA (FIG. 2), read-out: apparent dissociation constant K*d
Protocol: (§2) The interaction between the peptide and MUC5AC is evaluated by means of an ELISA assay. The mucin MUC5AC (purified from pieces of human tumor on the basis of mucin extraction and purification protocols described in literature) is immobilized on a plate at the concentration of 12.5 μg/ml overnight at 4° C. The nonspecific sites are then saturated in a buffer enriched with milk, for 2 hours at 4° C. After several rinses, the peptide CPSIYPLLC (SEQ ID No: 2) coupled to biotin is incubated at increasing concentrations (10^−3M and 10^−6M) for 2 hours at 37° C. The biotinylated peptides bound to MUC5AC are visualized using goat anti-biotin antibodies incubated for one hour at ambient temperature and then diluted in PBS at 1 μg/ml. After removal of the unbound antibodies, a second incubation for one hour at ambient temperature is carried out in the presence of peroxidase-labeled anti-goat antibodies at 0.2 μg/ml, diluted in PBS supplemented with 0.1% of Tween-20. The peroxidase coloration reaction is carried out in the presence of H2O2-enriched ABTS. The measurement of the OD at 405 nm makes it possible to calculate the K*d MUC5AC value. The interaction between the peptide and MUC5AC is also evaluated by means of the previously described ELISA assay on the mucin MUC5AC purified beforehand from mouse and rat stomach.

rat MUC5AC glycoprotein = test: ELISA on MUC5AC purified from rat stomach; type: binding; settings: ELISA (FIG. 2), read-out: apparent dissociation constant K*d
Protocol: as §2

[2] = test system: HT29-5M21 cells (MUC5AC cells); test: USPIO binding test on colonic cell model, iron assay by relaxometry; type: cell-based, human; settings: increasing concentrations 1/2/4/8 mM iron, 1 H at 37° C.
Protocol: (§3) After 21 days of culture for HT29-5M21 cells (MUC5AC cells), the literature reports that MUC5AC is massively expressed. […] The cells are rinsed with PBS at 4° C. and then directly brought into contact with 0.5 ml of USPIO diluted in PBS, for 1 H at 37° C. (incubator, 5% CO2). The USPIOs are tested at various iron concentrations of 1/2/4/8 mM on each of the lines. After the supernatant has been drawn off, the cells are washed twice with PBS and then scraped so as to subsequently be taken up with 250 μl of PBS (twice). The suspensions are subsequently freeze-dried and then taken up with 100 μl of a 5N HCl solution for 4 H at 80° C. in a water bath. The assay is then carried out using Paris reagent, before carrying out the relaxometry (Bruiser Minispec 60 MHz). The secretion of MUC5AC by the HT29 model and the absence of secretion with HCT116 were verified in the study.

[3] = test system: HCT116 cells (control cells, MUC5AC-negative); test: USPIO binding test on colonic control cells, iron assay by relaxometry; type: cell-based, human; settings: control cells HCT116, 1/2/4/8 mM iron, 1 H at 37° C.
Protocol: as §3

[4] = test system: mucin MUC5AC in the stomach; test: Molecular MRI (RARE, 7T) of the stomach of tumor-bearing mice; type: in vivo; settings: mice bearing MUC5AC-positive or -negative tumor
Protocol: (§4) The selected imaging parameters are the following: • RARE (rapid acquisition with relaxation enhancement) sequence (7T) • TR/TEeff=3000/48.7 ms, • RARE factor=4, • NEX=4, • Matrix=256×256 • FOV=2.3 cm • slice thickness=1 mm • 20 axial slices • spatial resolution=90 μm • acquisition time=12 min 48 s Mice: • bearing an MUC5AC-positive tumor were injected with PEG750-C60c (100 μmol/kg), • bearing an MUC5AC-positive tumor were injected with the control compound (100 μmol/kg) and • bearing an MUC5AC-negative tumor were injected with PEG750-C60c (100 μmol/kg).
MUC5AC. […] Indeed, using PEG750-C60c at equal concentration in animals having tumors with an opposite MUC5AC expression profile, but having the same mucin secretion characteristic in the stomach, a differential response was clearly observed in the tumor, but not in the stomach.

[5] = Particle size (PCS) and magnetic characterization; type: physicochemical
Protocol: Determined by PCS (Malvern 4700 instrument, laser 488 nm at 90°) on a sample diluted to ˜1 millimolar with water for injection filtered through 0.22 μm.

[6] = Plasma kinetics: iron concentration by relaxometry in plasma of imaged mice; type: in vivo; settings: 1 h-1 h 30 after injection
Source text: IV.2 Plasma Kinetics: Calculation of the Concentration of USPIO Contained in the Plasma of the Imaged Mice
It can be observed in table 3 that the iron concentrations are proportional to the dose of product injected.

Relaxivity measurements = type: physicochemical; settings: 37° C.
Protocol: […] The longitudinal relaxation time T1 is measured using an inversion recovery sequence and the transverse relaxation time T2 is measured using a CPMG technique.
The relaxation rates R1 (=1/T1) and R2 (=1/T2) were calculated for various concentrations of total metal (ranging from 0.1×10^−3 to 1×10^−3 mol/l) in aqueous solution at 37° C. The correlation between R1 or R2 as a function of the concentration is linear, and the slope represents the relaxivity r1 (R1/C) or r2 (R2/C) expressed as (1/second)×(1/mmol/l), i.e. (mM^−1·s^−1).

[7] = test system: HT295M21 and HCT116 xenografts; test: Detection of USPIOs on tumor xenograft tissue after in vivo injection (anti-PEG antibody); set-up: species or system mice
Source text: (§5) In the experiments carried out, the PEG750-C60C was detected using the anti-PEG antibody on HT295M21 xenograft, on HCT116 xenograft and on a section of mouse stomach without counterstaining. The control compound was detected on a section of mouse stomach without counterstaining. The sections were visualized in parallel with an anti-MUC5AC antibody on HT295M21 and HCT116.

mouse gastric tissue = test: Detection of USPIOs on mouse stomach sections after in vivo injection (anti-PEG antibody); settings: section of mouse stomach
Source text: as §5

[8] = test system: MUC5AC-negative tumor (HCT116 xenograft); test: Molecular MRI (RARE, 7T) of tumor in mice bearing MUC5AC-negative tumor; type: in vivo
Protocol: as §4

[9] = test system: MUC5AC-positive tumor (HT29 5M21 xenograft); test: Molecular MRI (RARE, 7T) of tumor in mice bearing MUC5AC-positive tumor; type: in vivo
Protocol: as §4

In the case of CC[C@H](C)[C@@H]1NC(=O)[C@H](CO)NC(=O)[C@@H]2CCCN2C(=O)[C@@H](N)CSSC[C@@H](C(N)=O)NC(=O)[C@H](CC(C)C)NC(=O)[C@H](CC(C)C)NC(=O)[C@@H]2CCCN2C(=O)[C@H](Cc2ccc(O)cc2)NC1=O [peptide CPSIYPLLC, Cys-Pro-Ser-He-Tyr-Pro-Leu-Leu-Cys] (H-CPSIYPLLC-NH2; disulfide 1-9; N-terminus and C-terminus assumed), the “labeling of sections of healthy human gastric epithelia” value (MUC5AC) is reported as “demonstrate the specificity”, the “recognition of the MUC2 glycoprotein on sections of colonic adenoma” value (MUC2 glycoprotein) is reported as “absence of recognition” and the Kd [1] is reported as 549 µM. It also gave a Kd (rat MUC5AC glycoprotein) of 659 µM.
With “PEG750-C60c (CPSIYPLLC; not fully specified; cysteine pairing not given here; also: PEG750 attached, site not given here, coupled to iron particle)” the “iron concentration on the cells” value [2] was “significantly increases”, the “iron concentration on the cells” value [3] was “does not change proportionally” and the “MRI image of the gastric region in contact with the lumen” value [4] was “clear darkening”. The Magnetic diameter [5] was 7.2 nm, the “Magnetization at saturation (magn.)” value [5] was 70 Am^2/Kg and the “hydrodynamic diameter Z ave (PCS)” value [5] was 28 nm. The “Iron concentration in the plasma” value ([6]; MUC5AC-negative mice, 20 μmol Fe/kg) was 471.5 µmol/L, the “Iron concentration in the plasma” value ([6]; MUC5AC-negative mice, 20 μmol Fe/kg, listed as PEG750-C60C) was 442.5 µmol/L and 350.7 µmol/L and 337 µmol/L and the “Iron concentration in the plasma” value ([6]; MUC5AC-negative mice, 100 μmol Fe/kg) was 2806 µmol/L and 3638 µmol/L. For the same molecule, the “Iron concentration in the plasma” value ([6]; MUC5AC-positive mice, 20 μmol Fe/kg) was 486.8 µmol/L and 380 µmol/L, the “Iron concentration in the plasma” value ([6]; MUC5AC-positive mice, 20 μmol Fe/kg, listed as PEG750-C60C) was 312.4 µmol/L and the “Iron concentration in the plasma” value ([6]; MUC5AC-positive mice, 40 μmol Fe/kg) was 909.6 µmol/L. For the same molecule, the “Iron concentration in the plasma” value ([6]; MUC5AC-positive mice, 100 μmol Fe/kg) was 1555.5 µmol/L, the “Iron concentration in the plasma” value ([6]; MUC5AC-positive mice, 100 μmol Fe/kg, listed as PEG750-C60C) was 2590 µmol/L and 3871 µmol/L and 1959 µmol/L and the “relaxivity r1” value (Relaxivity measurements; 20 MHz) was 30.54 s⁻¹ mM⁻¹. For the same molecule, the “relaxivity r1” value (Relaxivity measurements; 60 MHz) was 14.94 s⁻¹ mM⁻¹, the “accumulation in the tumors” value [7] was “only when they secrete MUC5AC” and the “labeling / accumulation in the mouse gastric tissue” value (mouse gastric tissue) was “specific labeling”. For the same molecule, the “MRI image contrast of the tumor” value ([8]; 100 μmol/kg) was “no variation in contrast”, the “change of signal in the tumor” value ([8]; same conditions (20 and 100 μmol of iron/kg)) was “no change or a slight increase” and the “signal variation in the tumor (ΔSI)” value ([9]; 20 μmol of iron/kg, post-contrast) was −10%. The “signal variation in the tumor (ΔSI)” value ([9]; 100 μmol of iron/kg) was −15% and the “MRI image contrast of the tumor” value ([9]; 100 μmol/kg) was “negative contrast image”.
